The IC50 is the point on the concentration scale where inhibition reaches its midpoint. Lower therefore signals greater potency. The term inhibition denotes the share of the control response that was lost under treatment. Higher therefore signals a response far below the control.

SMILES strings stand for the structures. In brackets after ≈: the same amount, converted by molar mass.

The record followed here is ChEMBL document CHEMBL1148048, “Two new tryptophan-derived alkaloids from the Okinawan marine sponge Aplysina sp” (J Nat Prod, 1994).

The subject of one assay is L1210. In words: Cytotoxicity against mouse L1210 cells. The class given is functional, cell-based.
In assay [1] the test system is KB. In words: Cytotoxicity against human KB cells. Format: functional, cell-based.
Assay [2] relates to KB. Briefly: Cytotoxicity against human KB cells at 20 ug/ml. Format: functional.

For the compound `CN1C(=N)N(C)/C(=C/c2c[nH]c3ccccc23)C1=O` [APLYSINOPSIN], the half-inhibitory concentration (IC50) in the assay with L1210 was determined as 2.3 µg/mL (≈ 9.04 µM); in the assay with KB [1], 6.4 µg/mL (≈ 25.2 µM).
`C/N=C1\NC(=O)/C(=C\c2c[nH]c3ccccc23)N1C` [ISOPLYSIN A]: in the assay with L1210, the IC50 was determined as 11.5 µg/mL (≈ 45.2 µM). The compound further returned an inhibition at 20 µg/mL in the assay with KB [2] of 31%.
Take `C/N=C1\N(C)C(=O)/C(=C\c2c[nH]c3ccccc23)N1C` [METHYLAPLYSINOPSIN]: the figures for the IC50 with L1210 and in the assay with KB [1] were 3.5 µg/mL (≈ 13 µM) and 6.7 µg/mL (≈ 25 µM), respectively.
